pIC50, pKi: −log10 of the molar value.
Columns and labels:
[1] = target: T1, Xanthine dehydrogenase/oxidase (Bos taurus, UniProt P80457); assay: Inhibition of bovine xanthine oxidase assessed as reduction in uric acid levels at 50 uM using xanthine as substrate after 120 mins by spectrophotometry; details: cattle, 2 h
[2] = target: T1, Xanthine dehydrogenase/oxidase; assay: Inhibition of bovine xanthine oxidase assessed as reduction in uric acid levels using xanthine as substrate after 120 mins by spectrophotometry
[3] = target: T1, Xanthine dehydrogenase/oxidase; assay: Potency index, ratio of allopurinol IC50 to compound IC50 for inhibition of bovine xanthine oxidase; details: cattle
[4] = target: T1, Xanthine dehydrogenase/oxidase; assay: Mixed-type inhibition of bovine xanthine oxidase assessed as enzyme-inhibitor complex using xanthine as substrate after 60 secs by Lineweaver-Burk plot method
[5] = target: T1, Xanthine dehydrogenase/oxidase; assay: Mixed-type inhibition of bovine xanthine oxidase assessed as enzyme-inhibitor-substrate complex using xanthine as substrate after 60 secs by Lineweaver-Burk plot method

T1 sequence (P80457 whole entry): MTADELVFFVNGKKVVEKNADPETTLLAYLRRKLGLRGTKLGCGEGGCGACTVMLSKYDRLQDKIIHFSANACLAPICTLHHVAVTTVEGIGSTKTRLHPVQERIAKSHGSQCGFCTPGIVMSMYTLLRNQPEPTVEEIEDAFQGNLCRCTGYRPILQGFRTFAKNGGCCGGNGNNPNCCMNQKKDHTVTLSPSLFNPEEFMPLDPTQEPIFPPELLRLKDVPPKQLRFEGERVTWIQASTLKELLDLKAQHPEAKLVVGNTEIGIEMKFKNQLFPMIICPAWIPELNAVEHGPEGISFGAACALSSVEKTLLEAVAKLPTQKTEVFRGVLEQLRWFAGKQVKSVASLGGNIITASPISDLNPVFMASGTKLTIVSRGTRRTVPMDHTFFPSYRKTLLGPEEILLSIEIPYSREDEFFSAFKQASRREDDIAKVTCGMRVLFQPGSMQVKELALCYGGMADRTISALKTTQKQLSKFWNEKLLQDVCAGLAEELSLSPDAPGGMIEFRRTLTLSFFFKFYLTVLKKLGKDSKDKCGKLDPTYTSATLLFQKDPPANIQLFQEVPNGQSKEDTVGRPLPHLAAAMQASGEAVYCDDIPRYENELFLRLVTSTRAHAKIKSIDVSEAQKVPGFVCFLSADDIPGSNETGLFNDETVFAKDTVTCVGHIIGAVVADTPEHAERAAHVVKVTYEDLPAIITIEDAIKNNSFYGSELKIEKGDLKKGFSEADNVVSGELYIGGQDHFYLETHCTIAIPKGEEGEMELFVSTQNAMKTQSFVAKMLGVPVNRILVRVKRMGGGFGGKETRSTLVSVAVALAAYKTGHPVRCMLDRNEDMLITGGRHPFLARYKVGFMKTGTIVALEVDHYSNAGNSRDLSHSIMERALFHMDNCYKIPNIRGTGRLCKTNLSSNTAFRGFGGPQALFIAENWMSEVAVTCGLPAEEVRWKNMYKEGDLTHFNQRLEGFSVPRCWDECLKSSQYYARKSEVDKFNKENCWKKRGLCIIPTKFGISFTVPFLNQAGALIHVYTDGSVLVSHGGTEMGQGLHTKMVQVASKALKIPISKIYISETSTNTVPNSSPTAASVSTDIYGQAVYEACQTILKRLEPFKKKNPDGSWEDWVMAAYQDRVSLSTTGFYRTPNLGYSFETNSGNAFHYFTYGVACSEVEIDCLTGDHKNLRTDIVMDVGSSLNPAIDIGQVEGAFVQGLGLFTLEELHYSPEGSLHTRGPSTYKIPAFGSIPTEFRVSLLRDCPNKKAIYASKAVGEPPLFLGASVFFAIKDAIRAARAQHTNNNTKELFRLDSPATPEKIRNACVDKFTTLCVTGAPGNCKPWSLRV

Work on O=Cc1ccc(F)cc1OCc1cn(Cc2ccc3c(c2)C(=O)c2ccccc2C3=O)nn1 yielded an inhibition at 50 µM [1] of 70.8% and a pIC50 [2] of 5.19.
With COc1cc(C=O)cc(OC)c1OCc1cn(Cc2ccc3c(c2)C(=O)c2ccccc2C3=O)nn1 the inhibition at 50 µM [1] was 70.3% and the pIC50 [2] was 4.77.
CCN(CC)c1ccc(C=O)c(OCc2cn(Cc3ccc4c(c3)C(=O)c3ccccc3C4=O)nn2)c1 gave an inhibition at 50 µM [1] of 9.8%.
In the case of O=Cc1cc(F)ccc1OCc1cn(Cc2ccc3c(c2)C(=O)c2ccccc2C3=O)nn1, the “Ratio IC50” value [3] was greater than 10, the inhibition at 50 µM [1] was 88% and the pIC50 [2] was 6.10.
For CC(=O)Nc1ccc(OCc2cn(Cc3ccc4c(c3)C(=O)c3ccccc3C4=O)nn2)cc1, the inhibition at 50 µM [1] was 20.1%.
In the case of O=C1c2ccccc2C(=O)c2cc(Cn3cc(CO)nn3)ccc21, the inhibition at 50 µM [1] was 31%.
Work on O=Cc1cccc(OCc2cn(Cc3ccc4c(c3)C(=O)c3ccccc3C4=O)nn2)c1 yielded an inhibition at 50 µM [1] of 77.2% and a pIC50 [2] of 4.82.
Molecule CC(=O)OCc1cn(Cc2ccc3c(c2)C(=O)c2ccccc2C3=O)nn1 has an inhibition at 50 µM [1] of 19.4%.
N#Cc1ccc(OCc2cn(Cc3ccc4c(c3)C(=O)c3ccccc3C4=O)nn2)cc1 was tested, and the inhibition at 50 µM [1] was 7%.
In the case of O=Cc1ccccc1OCc1cn(Cc2ccc3c(c2)C(=O)c2ccccc2C3=O)nn1, the pKi [4] was 6.24, the “Ratio IC50” value [3] was greater than 10 and the pKi [5] was 6.03. For the same molecule, the inhibition at 50 µM [1] was 90.7% and the pIC50 [2] was 6.22.
Work on Oc1ncnc2[nH]ncc12 [ALLOPURINOL] yielded an inhibition at 50 µM [1] of 95.1%.
In the case of O=Cc1ccc(OCc2cn(Cc3ccc4c(c3)C(=O)c3ccccc3C4=O)nn2)cc1, the inhibition at 50 µM [1] was 67.5% and the pIC50 [2] was 4.52.
With O=Cc1cc(Br)ccc1OCc1cn(Cc2ccc3c(c2)C(=O)c2ccccc2C3=O)nn1 the inhibition at 50 µM [1] was 21.1%.
O=C1c2ccccc2C(=O)c2cc(Cn3cc(COc4c(Cl)cccc4Cl)nn3)ccc21 gave an inhibition at 50 µM [1] of 12.7%.
For O=C1c2ccccc2C(=O)c2cc(Cn3cc(COc4ccccc4)nn3)ccc21, the inhibition at 50 µM [1] was 18.4%.
Work on O=Cc1ccccc1OCc1cn(Cc2ccccc2)nn1 yielded an inhibition at 50 µM [1] of 46.7%.
For O=Cc1cc(Cl)ccc1OCc1cn(Cc2ccc3c(c2)C(=O)c2ccccc2C3=O)nn1, the inhibition at 50 µM [1] was 61.1% and the pIC50 [2] was 4.33.
CCCCCCn1cc(COc2ccccc2C=O)nn1 gave an inhibition at 50 µM [1] of 43.5%.
In the case of O=Cc1cc(F)ccc1OCc1cn(Cc2ccccc2)nn1, the inhibition at 50 µM [1] was 83.4% and the pIC50 [2] was 4.67.
CCCCCCn1cc(COc2ccc(F)cc2C=O)nn1 was tested, and the inhibition at 50 µM [1] was 93% and the pIC50 [2] was 5.05.
Work on O=C(O)c1ccccc1OCc1cn(Cc2ccc3c(c2)C(=O)c2ccccc2C3=O)nn1 yielded an inhibition at 50 µM [1] of 24.2%.

Reference: ChEMBL document CHEMBL4000245, “Discovery and biological evaluation of some (1H-1,2,3-triazol-4-yl)methoxybenzaldehyde derivatives containing an anthraquinone moiety as potent xanthine oxidase inhibitors” (Bioorg Med Chem Lett, 2017)
